Laboratory results as given in patent US9980957B2, “Histone deacetylase (HDAC) inhibitors for the treatment of cancer” (TopoTarget UK Limited, priority 2005, dated 2018).
Like-named read-outs stand apart in the source and are kept apart here.

Columns and labels:
[1] = test system: AMO-1 plasmacytoma cell line; assay: CellTiter-Glo cell viability assay; assay type: cell-based; conditions: Homo sapiens, AMO1, 72 h, read-out: PXD-101 IC50
Description: (§1) Percent activity (% activity), was calculated for each test compound as: % activity={(S^c−B)/(S^o−B)}×100
(§2) wherein S^c denotes signal measured in the presence of the compound being tested, S^o denotes signal measured in the absence of the compound being tested, and B denotes the background signal measured in blank wells containing medium only. The IC50 corresponds to the drug concentration which achieves 50% activity of untreated control cultures. IC50 values were calculated using the software package Prism 3.0 (GraphPad Software Inc., San Diego, Calif.) with variable slope option.
(§3) This example reports the effects of PXD-101 on six distinct multiple myeloma cell lines, three plasma cell leukemia cell lines and one plasmacytoma. The cells were incubated with PXD-101 for 72 hours in vitro, and their viability measured by the CellTiter-Glo assay.

[2] = test system: RPMI-8226 multiple myeloma cell line; assay: CellTiter-Glo cell viability assay; assay type: cell-based; conditions: Homo sapiens, 72 h, read-out: PXD-101 IC50
Description: as §1, §2, §3

[3] = test system: L-363 plasma cell leukemia cell line; assay: CellTiter-Glo cell viability assay; assay type: cell-based; conditions: Homo sapiens, 72 h, read-out: PXD-101 IC50
Description: as §1, §2, §3

[4] = test system: OPM-2 multiple myeloma cell line; assay: CellTiter-Glo cell viability assay; assay type: cell-based; conditions: Homo sapiens; OPM-2, MM t(4;14)(p16;q32); 72 h; read-out: PXD-101 IC50
Description: as §1, §2, §3

[5] = test system: SK-MM-2 plasma cell leukemia cell line; assay: CellTiter-Glo cell viability assay; assay type: cell-based; conditions: Homo sapiens; SK-MM-2, plasma cell leukemia t(11;14)(q13;q32); 72 h; read-out: PXD-101 IC50
Description: as §1, §2, §3

[6] = test system: EJM multiple myeloma cell line; assay: CellTiter-Glo cell viability assay; assay type: cell-based; conditions: Homo sapiens, 72 h, read-out: PXD-101 IC50
Description: as §1, §2, §3

[7] = test system: KARPAS-620 plasma cell leukemia cell line; assay: CellTiter-Glo cell viability assay; assay type: cell-based; conditions: KARPAS-620, plasma cell leukemia t(8;14)(q24;q32); 72 h; read-out: PXD-101 IC50
Description: as §1, §2, §3

[8] = test system: KMS-12-BM multiple myeloma cell line; assay: CellTiter-Glo cell viability assay; assay type: cell-based; conditions: Homo sapiens, MM t(11;14)(q13;q32), 72 h, read-out: PXD-101 IC50
Description: as §1, §2, §3

[9] = test system: U266 multiple myeloma cell line; assay: CellTiter-Glo cell viability assay; assay type: cell-based; conditions: Homo sapiens, U-266, 72 h, read-out: PXD-101 IC50
Description: as §1, §2, §3

[10] = test system: LP-1 multiple myeloma cell line; assay: CellTiter-Glo cell viability assay; assay type: cell-based; conditions: Homo sapiens, LP-1, MM t(4;14)(p16;q32), 72 h, read-out: PXD-101 IC50
Description: as §1, §2, §3

[11] = Phase 1 dose escalation study, safety; assay type: in vivo, human
Description: (§4) A Phase 1 open label, dose escalation, safety, pharmacokinetics (PK), and pharmacodynamics (PD) study of PXD-101 was conducted in patients with advanced cancers.
(§5) PXD-101 was administered as a 30-minute intravenous (IV) infusion daily for 5-days every 3-weeks. In a subgroup of patients, PXD-101 was administered orally once, twice or thrice on day 1 only, in course 2 or 3. Acetylation of histones extracted from peripheral blood mononuclear cells (PBMNC) was measured by Western blotting. The PK/PD profile of intravenous and oral PXD-101 was evaluated.
The results of this study are as follows: 34 patients (median age 58 years, range 28-74; 19 male, all ECOG PS≤2) have been treated with a total of 103 cycles of PXD-101 (median 2; range 1 to 13) at 6 dose levels: 150 mg/m^2 (4 patients), 300 mg/m^2 (4 patients), 600 mg/m^2 (6 patients), 900 mg/m^2 (3 patients), 1000 mg/m^2 (12 patients) and 1200 mg/m^2 (5 patients).

[12] = test system: six multiple myeloma cell lines, three plasma cell leukemia cell lines and one plasmacytoma; assay: CellTiter-Glo cell viability assay, all ten cell lines; assay type: cell-based; conditions: 72 h
Description: as §1, §2, §3

[13] = Phase 1 dose escalation study, pharmacokinetics; assay type: in vivo, human; conditions: for half-life / Cmax / bioavailability: human, in vivo
Description: as §4, §5

[14] = test system: histone H4 acetylation in peripheral blood mononuclear cells; assay: Phase 1 study, pharmacodynamics: acetylation of histones from PBMNC by Western blotting; assay type: in vivo, human
Description: as §5

[15] = test system: advanced cancers; assay: Phase 1 study, tumor reduction in patients with advanced cancers; assay type: in vivo, human; conditions: a patient with epithelial mediastinal thymoma
Description: A Phase 1 open label, dose escalation, safety, pharmacokinetics (PK), and pharmacodynamics (PD) study of PXD-101 was conducted in patients with advanced cancers. PXD-101 was administered as a 30-minute intravenous (IV) infusion daily for 5-days every 3-weeks. In a subgroup of patients, PXD-101 was administered orally once, twice or thrice on day 1 only, in course 2 or 3. Acetylation of histones extracted from peripheral blood mononuclear cells (PBMNC) was measured by Western blotting. The PK/PD profile of intravenous and oral PXD-101 was evaluated.

[16] = test system: diverse tumor cell lines; assay: Proliferation of diverse tumor cell lines; assay type: cell-based
[17] = test system: A2780 ovarian cancer subcutaneous xenograft; assay: A2780 ovarian cancer subcutaneous xenograft model; assay type: in vivo; conditions: AVASTIN 5 mg/kg on day 4, mice
Description: The object of this study was to investigate the tumour growth inhibitory effect of AVASTIN® (bevacizumab) in an A2780 ovarian cancer subcutaneous xenograft model. Mice were treated on day 4 with AVASTIN® (bevacizumab) (5 mg/kg). The chemosensitising effect of PXD-101 in combination with AVASTIN® (bevacizumab) was also investigated.

O=C(/C=C/c1cccc(S(=O)(=O)Nc2ccccc2)c1)NO [PXD-101]
IC50 [1]: 29 nM
IC50 [2]: 196 nM
IC50 [3]: 100 nM
IC50 [4]: 106 nM
IC50 [5]: 28 nM
IC50 [6]: 123 nM
IC50 [7]: 112 nM
IC50 [8]: 88 nM
IC50 [9]: 141 nM
IC50 [10]: 45 nM
Patients with dose limiting toxicity ([11]; both, human, in vivo, iv, 5 days every 3 weeks): 3 patients
Most commonly reported other adverse events ([11]; in vivo): fatigue, nausea, vomiting, constipation, diarrhea and injection site reactions
Dose limiting toxicity ([11]; in vivo, iv): short-lived atrial fibrillation
Tolerability, in words ([11]; in vivo, iv): well tolerated
Tolerability, in words ([11]; in vivo, po): well tolerated
MTD ([11]; once daily for 5-days 30-minute IV infusion): 1000 mg/m^2
IC50 ([12]; mean of ten cell lines, read-out: IC50, mean of the ten cell lines): 97 nM
IC50 ([12]; ten cell lines, read-out: IC50, range over the ten cell lines): 28 to 196 nM
Accumulation, oral ([13]; 8-hour interval dosing): tendency towards accumulation
Accumulation, oral ([13]; 12-hour interval dosing): no accumulation
half-life ([13]; intravenous, one patient outside the range, read-out: t1/2, one patient (converted)): 1.8 h
half-life ([13]; iv, patients, IV infusion, read-out: Terminal elimination half-life): 0.5 to 1 h
Cmax ([13]; iv, reached at the end of the infusion): 6500 to 55800 ng/mL
Cmax ([13]; po, 1000 mg/m2, b.i.d. 1000 mg/m^2 oral on a single day, 5 patients): 1100 to 2900 ng/mL
bioavailability ([13]; po, 1000 mg/m2, b.i.d. 1000 mg/m^2 oral on a single day, 5 patients, SD 12.5%, read-out: Mean oral bioavailability): 42.8%
half-life ([13]; po, 1000 mg/m2, b.i.d. 1000 mg/m^2 oral on a single day, 5 patients, read-out: t1/2): 1.5 to 2 h
Cmax ([13]; po, 1000 mg/m2, t.i.d. 1000 mg/m^2 oral on a single day, 2 patients): 1300 to 1800 ng/mL
half-life ([13]; po, 1000 mg/m2, t.i.d. 1000 mg/m^2 oral on a single day, 2 patients, read-out: t1/2): 2 to 2.6 h
bioavailability ([13]; po, oral single dose, read-out: Mean single dose oral bioavailability): 33%
Oral bioavailability, in words ([13]; patients): orally bioavailable
PK dose dependence, in words ([13]; patients, IV): dose-proportional
Accumulation on repeated IV dosing ([13]; repeated IV dosing): no drug accumulation
Duration of histone H4 hyperacetylation ([14]; IV infusion, dose-dependent): 4 to 24 h
Duration of histone acetylation above baseline ([14]; oral 1000 mg/m^2): 5 to 10 h
Histone acetylation above baseline ([14]; oral 1000 mg/m^2): 40-50%
Reduction of mediastinal disease [15]: 70%
Time on the study [15]: over 1 year
IC50 [16]: 80 to 2430 nM

AVASTIN® (bevacizumab): recombinant humanized antibody to Vascular Endothelial Growth Factor (VEGF)
Tumour growth inhibition, in words [17]: significant growth inhibition
